Laboratory results from patent US7256024B2, “Tyrissamycin antibiotic” (Bristol-Myers Squibb Company, priority 1998, dated 2007).

Experiments:
Enterococcus faecalis = test: MIC, microtiter dilution technique; type: cell-based; conditions: Mueller-Hinton broth, 37° C., 16-24 hours
Procedure: (§1) Tyrissamycin was evaluated in vitro to detemine the minimal inhibitory concentrations (MIC) against seven gram-positive bacteria using the microtiter dilution technique. This method is described by T. B. Conrath, “Handbook of Microtiter Procedures,” Dynatech Corp., Cambridge, Mass., USA (1972); and T. L. Gavan et al “Microdilution Test Procedures,” in Manual of Clinical Microbiology, E. H. Lennette, Ed., American Soc. for Microbiol., Washington, D.C., USA (1980). These tests are performed in accordance with procedures established by the National Committee on Clinical Laboratory Standards (NCCLS). The test procedure is as follows: Each well of a sterile 96-well microdilution tray is filled under aseptic conditions with 0.1 ml of Mueller-Hinton broth. A 0.05-ml sample of the test compound solution is added to a well in the first row of the tray. A microdilutor apparatus is used to simultaneously mix the contents of these wells and to transfer aliquots to each succeeding row of cells to obtain a range of serially diluted solutions. The last row of wells is untreated and serves as a control. Each well containing broth and test compound is inoculated with about ten microliters of inoculum of a given test microorganism. One well in the last row of wells (which is free of test compound) is not inoculated and is used as a sterility control. The trays are sealed and incubated at 37° C. for 16-24 hours.

Streptococcus pneumoniae = test: MIC, microtiter dilution technique; type: cell-based; conditions: Mueller-Hinton broth, 37° C., 16-24 hours
Procedure: as §1

Enterococcus faecium = test: MIC, microtiter dilution technique; type: cell-based; conditions: Mueller-Hinton broth, 37° C., 16-24 hours
Procedure: as §1

[1] = tested on: Staphylococcus haemolyticus; test: MIC, microtiter dilution technique; type: cell-based; conditions: Mueller-Hinton broth, 37° C., 16-24 hours
Procedure: as §1

Streptococcus pyogenes = test: MIC, microtiter dilution technique; type: cell-based; conditions: Mueller-Hinton broth, 37° C., 16-24 hours
Procedure: as §1

[2] = tested on: Staphylococcus epidermidis; test: MIC, microtiter dilution technique; type: cell-based; conditions: Mueller-Hinton broth, 37° C., 16-24 hours
Procedure: as §1

Staphylococcus aureus = test: MIC, microtiter dilution technique; type: cell-based; conditions: Mueller-Hinton broth, 37° C., 16-24 hours
Procedure: as §1

Solubility = type: physicochemical
From the text: A purified sample of tyrissamycin was isolated as a white amorphous powder. […] FIG. 3 (CD3OD) • ^13C-NMR: See FIG. 4 (CD3OD)

[3] = tested on: Staphylococcus aureus strain SA1; test: Well-agar diffusion biological assay; type: cell-based; conditions: sample 5 mg/ml; S. aureus SA1; 7 mm agar wells; fractions of final purification
Procedure: Assays for detection and evaluation of the antibacterial activity of tyrissamycin employ various strains of Staphylococcus aureus. The primary biological assay system consists of S. aureus strain SA1.
SA1 is grown at 37° C. overnight in Antibiotic Assay Broth (BBL, Cockeysville, Md.). The culture is centrifuged at 4000 rpm for 10 minutes and the medium is decanted. Cells are resuspended in 0.9% saline. The culture is adjusted to 25% transmission (600 nm wavelength) using a Coleman Junior Spectrophotometer. This 25% working cell suspension is stored at 4° C. for use as the assay inoculum.
All biological assays employ agar diffusion techniques. Assay agar is Seed Agar (BBL) supplemented after autoclaving with 4% of phosphate-nitrate buffer, pH 7.0, and 0.3% of a 2% solution of triphenyltetrazolium chloride. For well-agar diffusion assays, assay agar is seeded with 1% of the working cell suspension of SA1. The seeded agar is poured into Petri dishes or bioassay trays and allowed to harden. Wells (7 mm diameter) are cut in the agar, and 40 μl sample aliquots are added to the wells. (For some assays, 3 μl of sample are spotted directly on the surface of the agar). Plates are incubated at 37° C. for 18-24 hours, and zones of inhibition (if any) are measured. Inhibition zone sizes correlated with the activity of tyrissamycin in various samples.

Substance: tyrissamycin
- Minimal Inhibitory Concentration (Enterococcus faecalis): 32 µg/mL
- Minimal Inhibitory Concentration (Streptococcus pneumoniae): 4 µg/mL
- Minimal Inhibitory Concentration (Enterococcus faecium): 64 µg/mL
- Minimal Inhibitory Concentration [1]: 32 µg/mL
- Minimal Inhibitory Concentration (Streptococcus pyogenes): 4 µg/mL
- Minimal Inhibitory Concentration [2]: 32 µg/mL
- Minimal Inhibitory Concentration (Staphylococcus aureus): 32 µg/mL
- Solubility (Solubility; in chloroform): Soluble
- Solubility (Solubility; in dimethylsulfoxide (DMSO)): Soluble
- Solubility (Solubility; in methanol): Soluble
- Solubility (Solubility; in water): practically insoluble
- Inhibition Zone [3]: 14.0 mm
